Measurements as given in US6605712B1, “Gene transcription and ionizing radiation: methods and compositions” (Arch Development Corporation, priority 1990, dated 2003).
Entries after “also recorded” stand apart in the source; their conditions may differ.

Columns and labels:
[1] = system: HL-525 cells; assay: Nuclear run-on assay of c-Jun transcription; assay type: cell-based, human; conditions: radiation alone 4-fold increase
Method: Nuclear run-on assays. Nuclei were isolated from 10^8 cells and suspended in 100 μl glycerol buffer (50 mM Tris-HCl, pH 8.3, 40% glycerol, 5 mM MgCl2, and 0.1 mM EDTA). An equal volume of reaction buffer (10 mM Tris-HCl, ph 8.0, 5 mM MgCl2, 100 mM KCl, 1 mM ATP, 1 mM CTP, 1 mM GTP, and 5 mM dithiothreitol) was added to the nuclei in suspension and incubated at 26° C. for 30 min with 250 μCi [α-^32P]UTP (3000 Ci/mmol; Dupont, Boston, Mass.). The nuclear RNA was isolated as described and hybridized to the following DNAs: 1) a PstI digest of the pA1 plasmid containing a fragment of the chicken β-action gene; and 2) a BamHI/EcoRI digest of the pBluescript SK(+) plasmid containing a fragment of the human c-Jun gene. The digested DNAs were run in 1% agarose gels and transferred to nitrocellulose filters. Hybridizations were performed with 10^7 cpm of ^32P-labeled RNA/ml in 10 mM Tris-HCl, ph 7.5, 4×SSC, 1 mM EDTA, 0.1% SDS, 2×Denhardt's solution, 40% formamide, and 100 μg/ml yeast tRNA for 72 h at 42° C. The filters were washed in: a) 2×SSC-0.1% SDS at 37° C. for 30 min; b) 200 ng/ml RNase A in 2×SSC at room temperature for 5 min; and c) 0.1×SSC-0.1% SDS at 42° C. for 30 min.

[2] = system: HL-525 cells; assay: Northern analysis of c-Jun mRNA; assay type: cell-based, human
Method: (§1) Cell culture. Clone HL-205 was isolated from the human HL-60 myeloid leukemia cell line. The phorbol ester-resistant variant of HL-60 cells, designated HL-525, was isolated by exposing wild-type cells to low concentrations of 12-0-tetradecanoylphorbol-13-acetate (TPA; 0.5 to 3 nM) for 102 passages. These cells were maintained in RPMI 1640 medium containing 20% fetal bovine serum (FBS) with 1 mM L-glutamine, 100 U/ml penicillin and 100 μg/ml streptomycin. Irradiation was performed at room temperature using a Gamma cell 1000 (Atomic Energy at Canada Ltd., Ontario) with a ^137CS source emitting at a fixed dose rate of 14.3 Gray (Gy)/min as determined by dosimetry.
(§2) Isolation and analysis of RNA. Total cellular RNA was purified by the guanidine isothiocyanate-cesium chloride technique. The RNA was analyzed by electrophoresis through 1% agarose-formaldehyde gels, transferred to nitrocellulose filters, and hybridized to the following 32P-labeled DNA probes: 1) the 1.8-kb BamHI/EcoRI insert of a human c-Jun gene purified from a pBluescript SK(+) plasmid; 2) the 1.5-kb EcoRI fragment of the murine Jun-B cDNA from the p465.20 plasmid; 3) Jun-D; 4) the 0.9-kb ScaI/NcoI insert of human c-fos gene purified from the pc-fos-1 plasmid; 5) the 2.0-kb PstI insert of a chicken β-actin gene purified from the pA1 plasmid; and 6) the 1.9-kb BamHI/PstI insert of a human TNF cDNA purified from the pE4 plasmid. Hybridizations were performed at 42° C. for 24 h in 50% (v/v) formamide, 2×SSC, 1×Denhardt's solution, 0.1% SDS, and 200 μg/ml salmon sperm DNA. The filters were washed twice in 2×SSC-0.1% SDS at room temperature and then in 0.1×SSC-0.1% SDS at 60° C. for 1 hour.

[3] = system: HL-205 cells; assay: Northern analysis of c-Jun mRNA; assay type: cell-based, human
Method: as §1, §2

[4] = system: c-Jun gene expression; conditions: other studies; cited from earlier work
[5] = system: Egr-1 and Jun transcripts in cell lines 293 and SQ-20B; assay: Northern blot of Egr-1 and Jun transcripts after x-irradiation with inhibitors; assay type: cell-based; conditions: for effect on x-ray-induced increase in Egr-1 and Jun transcripts: treatment prior to irradiation
Method: Cell line SQ-20B was pretreated with 1 μM TPA for 40 hours to down regulate PKC and then stimulated with TPA, serum, or x-ray (20 Gy). Controls included x-ray without TPA pretreatment, TPA (50 nM) without TPA pretreatment and untreated cells. RNA was isolated after one hour and hybridized to Egr-1. SQ-20B cells were preincubated with 100 μM H7 (1-(5-isoquinolinylsulfonyl)-2-methyl piperazine) or 100 μM HA1004 (N-[2-methyl-amino]ethyl)-5-isoquino-linesulfonamide) (Seikagaku America, Inc., St. Petersberg, Fla.) for 30 minutes or TPA pretreatment (1 μM) for 40 hours and followed by exposure to 20 Gy x-irradiation. RNA was extracted one hour after irradiation. Positive control cells treated under the same conditions but in the absence of inhibitor also received 20 Gy, while negative control cells received neither H7 nor X-ray. RNA was extracted at one hour after 20 Gy without inhibitor. Northern blots were hybridized to Egr-1 or 7S. 293 cells pretreated with the above inhibitors were irradiated, RNA was extracted after 3 hours and the Northern blot was hybridized to Jun and 7S probes.

[6] = system: RIT-3 cells; assay: GAL4-Jun chimeric / G5BCAT co-transfection CAT assay; assay type: cell-based, human
Excerpt: HeLa and RIT-3 cells were transfected with two plasmids. Plasmid pSG-Jun5-253 contained the SV40 promoter (not transcriptionally responsive to radiation) upstream of an encoding region that encoded a chimeric protein (GAL4-Jun) comprising a sequence for Δ, A1, and A2 (Baichwal, 1990) and the DNA binding domain of the yeast GAL4 gene (the DNA binding domain of Jun was replaced with the DNA binding domain of the GAL4 gene, Baichwal, 1990). A second plasmid, G5BCAT was constructed to contain the DNA sequence that binds Gal4 protein placed 5′ of the Elb TATA box and upstream of the CAT reporter gene (Baichwal, 1990).
Two plasmids were transfected into HeLa and RIT-3 cells to study activation of the transcriptional potential of Jun protein following irradiation. pSG-Jun5-253 contains the SV40 promoter, which is not transcriptionally responsive to radiation, upstream of the coding sequence for Δ, A1, and A2 (Baichwal, 1990). The DNA binding domain of Jun was replaced with the DNA binding domain of the yeast GAL4 gene which encodes a protein involved in yeast transcriptional regulation (Baichwal, 1990). A second plasmid, G5BCAT contains the DNA sequence which binds Gal4 protein placed 5′ of the E1b TATA box upstream of the CAT reporter gene (Baichwal, 1990). […]

[7] = system: cell line HNSCC-68; assay: Colony-forming radiation-survival assay with TNF-α; assay type: cell-based, human; conditions: nonlethal TNF-α 10 units/ml
[8] = system: TNF-α-producing sarcomas (STSAR-5, -13, -33, and -43)
[9] = system: cell line SQ-20B; assay: Colony-forming radiation-survival assay with TNF-α; assay type: cell-based, human
[10] = system: cell line STSAR-33; assay: Colony-forming radiation-survival assay with TNF-α; assay type: cell-based, human
[11] = system: 12 human epithelial tumor cell lines; conditions: cited from earlier work
[12] = system: Cell lines STSAR-13 and STSAR-43; assay: Colony-forming radiation-survival assay with TNF-α; assay type: cell-based, human
[13] = system: SQ-20B and SCC-61 cells
[14] = system: cell line STSAR-5; assay: Colony-forming radiation-survival assay with TNF-α; assay type: cell-based, human; conditions: STSAR-5, 100-700 cGy

With `CC(=O)N[C@@H](CS)C(=O)O` [NAC, N-acetyl-L-cysteine] the “inhibition of radiation-increased rate of c-Jun transcription” value [1] was ~90%, the “effect on H2O2-induced c-Jun expression” value [2] was “similarly inhibited” and the “effect on ara-C-induced c-Jun gene induction” value [2] was “no detectable effect on induction of the c-Jun gene; also recorded: no detectable effect on ara-C-induced increases in c-Jun transcripts”. For the same compound, the “effect on x-ray-induced c-Jun expression” value [2] was “inhibited”, the “effect on constitutive levels of c-Jun transcripts” value ([3]; 30 mM) was “little if any effect on constitutive levels of c-Jun transcripts” and the “inhibition of x-ray-induced increases in c-Jun expression” value ([3]; 30 mM) was “over 90%”.

With `OO` [Plasmid H2O2, H2O2] the “effect of agent alone on c-Jun expression” value [2] was “transiently induced c-Jun expression; also recorded: increased c-Jun expression”.

In the case of `CC1CNCCN1S(=O)(=O)c1cccc2cnccc12` (centres unmarked) [Plasmid H7, 1-(5-isoquinolinylsulfonyl)-2-methyl piperazine], the “effect on x-ray-induced c-Jun expression” value [4] is listed as “block x-ray-induced c-Jun gene product expression; also recorded: inhibited”, the “effect on x-ray-induced increase in Egr-1 and Jun transcripts” value (from here on “effect on x-ray-induced increase”) [5] is listed as “attenuated the increase in Egr-1 and Jun transcripts; also recorded: attenuation of Egr-1 and Jun gene induction by ionizing radiation” and the “effect on x-ray induced increase in CAT activity” value ([6]; added to RIT-3 cells transfected with pSG-Jun5-235 and G5BCAT) is listed as “abrogated the x-ray induced increase in CAT activity”.

With `CCCCCCCCCCCCCC(=O)O[C@@H]1[C@@H](C)[C@@]2(O)[C@@H](C=C(CO)C[C@]3(O)C(=O)C(C)=C[C@@H]23)[C@H]2C(C)(C)[C@]12OC(C)=O` [TPA, 12-0-tetradecanoylphorbol-13-acetate] the “effect on expression of Jun-B, Jun-D, c-fos, fos-B” value [2] was “little if any effect on expression of these genes”, the “effect on x-ray-induced c-Jun expression” value [2] was “blocks x-ray-induced increases in c-Jun expression” and the “block of H2O2-induced increases in c-Jun expression” value ([2]; pretreatment) was 80%. The “block of x-ray induced increases in c-Jun expression” value ([2]; pretreatment 36-39 hours) was “over 75%”, the “effect on c-Jun expression” value ([3]; agent alone) was “increases in c-Jun expression that were detectable at 6 hours and reached maximal levels by 24 hours” and the “effect on x-ray-induced increase” value [5] was “attenuated the increase in Egr-1 and Jun transcripts; also recorded: attenuation of Egr-1 and Jun gene induction by ionizing radiation”. For the same compound, the “increase in CAT activity following TPA stimulation” value ([6]; HeLa and RIT-3 transfectants with pSG-Jun5-253 and G5BCAT) was 3.5 fold.

In the case of `CCC/C=C/C=C/C(=O)O[C@H]1/C(=C/C(=O)OC)C[C@H]2C[C@H]([C@@H](C)O)OC(=O)C[C@H](O)C[C@@H]3C[C@H](OC(C)=O)C(C)(C)[C@](O)(C[C@@H]4C/C(=C/C(=O)OC)C[C@H](/C=C/C(C)(C)[C@]1(O)O2)O4)O3` [bryostatin], the “effect on H2O2-induced c-Jun expression” value [2] is reported as “no detectable effect” and the “effect on x-ray-induced c-Jun expression” value [2] is reported as “little if any effect on the induction of c-Jun transcripts by ionizing radiation”.

In the case of `C[C@@H]1C[C@@H]([C@H](O)CC2CC(=O)NC(=O)C2)C(=O)[C@@H](C)C1` [cycloheximide], the “Jun mRNA after irradiation in pretreated cells” value ([5]; 293 cells pretreated with CHI) is reported as “persistent elevation of Jun mRNA at 6 hours”, the “Egr-1 mRNA after irradiation in pretreated cells” value ([5]; SQ-20B cells pretreated with CHI) is reported as “persistent elevation of Egr-1 at 3 hours” and the “effect of treatment alone on Egr-1 and Jun transcripts” value ([5]; normalized to 7S, no irradiation) is reported as “low but detectable increase in Egr-1 and Jun transcripts”. The “effect on x-ray-induced increase” value [5] was “superinduction of Jun and Egr-1”.

With TNF-α the “effect on radiation killing” value [7] was “enhanced radiation killing”, the cytotoxicity [8] was “cytotoxic” and the “reduction of plating efficiency (PE)” value ([8]; 1000 units/ml) was 60-90%. The “killing with TNF-α alone” value ([9]; SQ-20B, FIG. 1B) was 85%, the “radiosensitivity (D0)” value ([9]; TNF-α 1000 units/ml added 24 hr before x-rays, 239 cGy without TNF-α) was 130.4 cGy and the “effect on cell killing by radiation” value ([9]; TNF-α added after irradiation) was “did not enhance cell killing by radiation”. For the same compound, the “interaction between TNF-α and radiation” value ([10]; STSAR-33, TNF-α 10 units/ml) was “synergistic; also recorded: enhanced killing by radiation”, the “radiosensitivity (D0)” value ([10]; TNF-α 10 units/ml added 20 hr before irradiation, 80.4 cGy without TNF-α) was 60.4 cGy and the “plating efficiency (PE)” value ([10]; TNF-α at 1000 units/ml) was 30%. The “concentrations with cytotoxic effects” value [11] was 10 to 1000 units/ml, the “killing by TNF and x-rays combined” value ([11]; seven of those ten cell lines) was “synergistic or additive killing” and the “interaction between TNF-α and radiation” value [12] was “no interaction was observed”. The cytotoxicity [13] was “cytotoxic”, the “reduction of plating efficiency (PE)” value ([13]; 1000 units/ml) was 60-80% and the “interaction between TNF-α and radiation” value [14] was “additive”.
